{"source": "paper PMC10301896", "about": "(Pharmaceutics, 2023)", "key": {"[1]": {"settings": "control rabbits"}, "[2]": {"assay": "in vivo", "settings": "male, albino, rabbit, iv, 10 mg/kg"}, "[3]": {"assay": "in vivo", "settings": "for AUC(0-t) / AUC(0-inf) / bioavailability / Cmax / Tmax: male, albino, rabbit, in vivo, po, 150 mg/kg, TC 150 mg/kg orally; for AUC(0-t): AUC0–6h; for AUC(0-inf): AUC0–∞; for bioavailability: Bioavailability (absolute oral)", "protocol": "Rabbits were supplied solid food for rabbits (CR-3M, CLEA Japan, Inc., Tokyo, Japan), and the average amount of CR-3M that each rabbit ingested was 100–110 g/day. CR-3M contains various vitamins and cationic metals including Ca, Mg, and iron (Fe^2+, Fe^3+) in addition to various energy sources. […] Coprophagy was not prevented in control rabbits.\nAfter administration orally by stomach intubation, blood samples (100 μL each) were taken periodically from the ear vein at 0.25, 0.5, 1, 2, 4 and 6 h. Blood samples were centrifuged at 3000× g for 10 min to obtain plasma samples."}, "[4]": {"assay": "Chelation with Al3+ ion in vitro (precipitation with AlCl3)", "type": "physicochemical", "settings": "drug 50 μM, pH 6.5, 30 min, 24 °C", "protocol": "AlCl3 was also dissolved in the same buffer at a concentration of 50 μM, 100 μM, 200 μM, 1 mM, or 2 mM, and each drug solution and AlCl3 solution were mixed at an equal volume. The mixture solution was shaken, stood for 30 min at 24 °C and centrifuged. The supernatant was filtrated through a syringe filter with 0.22 μm of pore size (Millipore, Tokyo, Japan)."}, "[5]": {"settings": "cited from earlier work"}}, "note": "Structures can show the parent of a compound that is named as a salt."}
{"smiles": "CN(C)[C@@H]1C(O)=C(C(N)=O)C(=O)[C@@]2(O)C(O)=C3C(=O)c4c(O)cccc4[C@@](C)(O)[C@H]3C[C@@H]12", "note": "[TC, tetracycline hydrochloride]", "values": [{"measurement": "β", "setting": "[1]; […] iv infusion, LFX 20, CFX 30, TC 10 mg/kg", "value": "0.28 ± 0.10", "unit": "h⁻¹"}, {"measurement": "Total plasma clearance (CLtotal), Doseiv/AUC0–∞", "setting": "[1]; iv infusion", "value": 18.83, "unit": "mL/min/kg"}, {"measurement": "AUC(0-t)", "setting": "[2]", "value": "7570 ± 1380", "unit": "ng·h/mL"}, {"measurement": "TC in plasma after oral administration", "setting": "[3]; at a lower dose than 30 mg/kg, rabbits", "value": "not detected"}, {"measurement": "AUC(0-t)", "setting": "[3]; EDTA-treated rabbits", "value": "4680 ± 930", "unit": "ng·h/mL"}, {"measurement": "AUC(0-t)", "setting": "[3]; control rabbits", "value": "2540 ± 910", "unit": "ng·h/mL"}, {"measurement": "AUC(0-inf)", "setting": "[3]; EDTA-treated rabbits", "value": "6490 ± 1080", "unit": "ng·h/mL"}, {"measurement": "AUC(0-inf)", "setting": "[3]; control rabbits", "value": "3390 ± 1260", "unit": "ng·h/mL"}, {"measurement": "bioavailability", "setting": "[3]; EDTA-treated rabbits", "value": "4.9 ± 0.81", "unit": "%"}, {"measurement": "bioavailability", "setting": "[3]; control rabbits", "value": "2.56 ± 0.95", "unit": "%"}, {"measurement": "Cmax", "setting": "[3]; EDTA-treated rabbits", "value": "1120 ± 280", "unit": "ng/mL"}, {"measurement": "Cmax", "setting": "[3]; control rabbits", "value": "730 ± 220", "unit": "ng/mL"}, {"measurement": "Tmax", "setting": "[3]; EDTA-treated rabbits", "value": 2, "unit": "h"}, {"measurement": "Tmax", "setting": "[3]; control rabbits", "value": "1.67 ± 0.58", "unit": "h"}, {"measurement": "Precipitation (%)", "setting": "[4]; AlCl3 25 μM", "value": "63.2 ± 21.3", "unit": "%"}, {"measurement": "Precipitation (%)", "setting": "[4]; AlCl3 50 μM", "value": "84.0 ± 13.9", "unit": "%"}, {"measurement": "Precipitation (%)", "setting": "[4]; AlCl3 100 μM", "value": "91.6 ± 7.3", "unit": "%"}, {"measurement": "Precipitation (%)", "setting": "[4]; AlCl3 500 μM", "value": "96.2 ± 5.7", "unit": "%"}, {"measurement": "Precipitation (%)", "setting": "[4]; AlCl3 1 mM", "value": "99.4 ± 1.19", "unit": "%"}, {"measurement": "Oral bioavailabilities in humans", "setting": "[5]; LFX 200–750 mg, CFX 200–1000 mg, TC 250 mg, ref references listed in the discussion section", "value": "77–88% (250 mg)"}, {"measurement": "Absolute oral bioavailability", "setting": "[5]; humans, dose of 250 mg", "value": "77–88%"}]}
